Here are results for three compounds from US10390536B2, “Methods, compounds and compositions for repelling insects and/or arachnids” (National Center for Scientific Research “Demokritos”, priority 2013, dated 2019).

Each structure is given as a SMILES string.

In assay [1] the test system is sand fly Lutzomyia longipalpis. In words: warm body repellence assay with sand flies. The format is in vivo. The note with it: for Median of landings: 2 minutes, control 48. As for the experimental part: To test the effects of repellent compounds or compositions disclosed herein on other blood-feeding arthropods, a warm body repellence assay (Krober et. al. (2010). An In Vitro Assay for Testing Mosquito Repellents Employing a Warm Body and Carbon Dioxide as a Behavioral Activator. Journal of the American Mosquito Control Association 26(4): 381-386] was conducted using the sand fly Lutzomyia longipalpis (Diptera: Psychodidae), the principal vector of Leishmania (or leismaniasis) in the Americas.
[…] Fifty L. longipalpis sandflies (male:female ratio 1:1) of 3-7 days old were tested during the scotophase under conditions described for A. gambiae in Example 6. The test cages were lined with filter paper. Reduction in the number of landings by L. longipalpis sand fly females on a warm body treated with different test products compared to the control with solvent (ethanol p.a.) alone was used to evaluate repellence. Tests were conducted in complete darkness using IR LEDs to illuminate the warm body. Landings counted during 2 minutes were normalized by experimental day, cage, and number of females by a mixed linear model before testing for differences.

Assay [2] relates to A. gambiae females. Put plainly: wind tunnel spatial repellence (landings on treated netting downwind of dirty sock). Type of assay: in vivo, Anopheles gambiae. The note with it: for inhibition of landing on treated netting (in words): 38 or 57 μg DEET/cm^2, 38 or 76 μg carvacrol/cm^2; for Mean Landings/5 minutes: control 24.6. Here is the method: Carvacrol was tested in a wind tunnel (60×60×120 cm) in order to test for inhibition of the attractiveness of dirty socks, which are otherwise very attractive to the malaria mosquito A. gambiae. Experiments were conducted at 25° C. and 80% relative humidity at a wind speed of 0.5 m·s^−1 during the last 6 hours of scotophase. Dim fluorescent light (4 Lux) was provided from above (Philips TLD, 32 Watts at 36 KHz). A tube (55 mm inner diameter) was covered at its downwind end with mosquito netting which was treated with 38 or 57 μg DEET/cm^2 or 38 or 76 μg carvacrol/cm^2 or the solvent (ethanol) alone (control). Groups of 30 A. gambiae females were released from a release cage at the downwind end of the wind tunnel and their landing behaviour on the mosquito netting was recorded with a high definition video camera. The number of mosquitoes landing on the mosquito netting over 5 minutes was counted.

In assay [3] the test system is female A. gambiae antennae. In words: GC-coupled electroantennogram (GC-EAG) recording. Set-up: species or system Anopheles gambiae. The note with it: compounds eluting from GC of essential oils. From the text:
Electrophysiological recordings from whole mosquito antenna: Coupling EAG recordings from an A. gambiae antenna to the effluent of a high-resolution gas chromatographic (GC) column permitted the determination of the elution profiles of biologically active components of essential oils showing repellence. Recordings were made from to 4-9 day-old female mosquitoes. The head was excised at the occipital opening and placed on the reference glass electrode containing Hayes mosquito Ringer [Hayes (1953). Determination of a physiological saline for Aedes aegypti (L.). J Econ Entomol 46: 624-627] mounted in a humidified air-stream (90-98% RH; Guerin and Visser (1980). Electroantennogram Responses of the Carrot Fly, Psila rosae, to Volatile Plant Components. Physiological Entomology 5(2): 111-119] and its antenna exposed to compounds eluting from the GC column (Biessamann et al. (2010). The Anopheles gambiae odorant binding protein 1 (AgamOBP1) mediates indole recognition in the antennae of female mosquitoes. PLoS One 5(3): e9471]. The EAG response was recorded via a glass electrode filled with Kaissling sensillum lymph Ringer [Kaissling (1995). Single unit and electroantennogram recordings in insect olfactory organs. In Experimental Cell Biology of Taste and Olfaction. Current Techniques and Protocols, Spielman AlaB, J. G. (ed), 361-386. Boca Raton, Fla.: CRC Press] brought into contact with the terminal antennal segment whose tip was cut off. Only antennae showing an EAG response at least double the noise level to a 1 ml puff of air over 1 μg geranylacetone in a 5 ml stimulus syringe were used for recording EAG responses to the essential oils.
To conduct a GC-EAG analysis, about 2 μg of an essential oil was injected in 1-3 μL of dichloromethane (DCM) onto an apolar capillary column (95% dimethyl polysiloxan with 5% diphenyl polysiloxan, 15 m long, 0.25 mm i.d., 0.10 μm film thickness; BGB Analytik, Switzerland) installed in a 5300 Carlo Erba Instruments chromatograph. Hydrogen was used as carrier gas with the oven held at 40° C. for 3 minutes then heated up 25° C./min to 230° C. and held at the final temperature for 15 min. The column effluent was split (50:50) between the flame ionization detector (FID) of the chromatograph and the mosquito antennal preparation. The EAG signal was fed into an AC/DC amplifier (×100) via a high impedance preamplifier (×10), recorded on the hard disk of a PC via a 16-bit analogue-digital IDAC4 interface (Syntech, Netherlands) and monitored simultaneously with an oscilloscope (Tektronix 5103, USA). Kovats retention indices (KIs) were calculated for the EAG-active compounds present in the extracts and fractions. FIG. 1 illustrates the results obtained using the GC-EAG analysis. […]

Assay [4] deals with Ixodes ricinus (Ixodidae) nymphs. Put plainly: tick repellence assay on warm glass plate. Type of assay: in vivo. The note with it: 10 μg/cm^2; nymphs dropped off or walked down the warm glass plate; control 8. As for the experimental part:
The products were tested at a dose of 10 μg/cm^2 on Ixodes ricinus (Ixodidae) nymphs according the protocol described in Krober, T. et al. (2013). A standardised in vivo and in vitro test method for evaluating tick repellents. Pesticide Biochemistry and Physiology 107: 160-168] with the following modifications: The test products (dissolved in ethanol) were allowed to evaporate for 40 s (as in the warm body test with mosquitoes) and the warm glass plates were used up to 250 s after application of the test products for the repellence assay. Four repetitions were made with carvacrol with 3, 4, 4 and 5 nymphs, i.e. with a total of 16 I. ricinus nymphs, of which in total 75% (12) were affected in that they either dropped off or walked down the warm glass plate.
The mixture of carvacrol+cumin alcohol+butyl-cinnamate was tested in two repetitions with 6 and 7 nymphs, i.e. with a total of 13 I. ricinus nymphs, of which 100% were affected in that they either dropped off or walked down the warm glass plate. Of 12 Ixodes ricinus tested in the control (ethanol only) only one tick (8%) was affected (Table 8).

Setting [5] is: netting treated with 38 μg/cm^2.

In the case of `CCN(CC)C(=O)c1cccc(C)c1` [DEET, N,N-diethyl-3-methylbenzamide, reference compound], the Median of landings in assay [1] (20 nmol/cm^2) turned out to be 6; in assay [1] (200 nmol/cm^2), 5. Besides, in assay [2], the “inhibition of landing on treated netting (in words)” value is given as “clearly inhibited”. Also, the “Mean Landings/5 minutes” value in assay [2] (setting [5]) and in assay [2] (netting treated with 57 μg/cm^2 (300 nmol/cm^2)) was 0 Landings/5 minutes in each case.
Take `Cc1ccc(C(C)C)cc1O` [carvacrol, 5-isopropyl-2-methylphenol]: the “EAG response of antenna” value in assay [3] is recorded as “capable of triggering EAG responses”. Besides, the “% affected ticks” value in assay [4] was found to be 75%. The Median of landings came to 23 in assay [1] (20 nmol/cm^2) and 1 in assay [1] (200 nmol/cm^2). Moreover, in assay [1] (20 and 200 nmol/cm^2), the “repellence of sand flies from the warm body (in words)” value was “as effective as DEET at 20 nmol/cm^2”. Moreover, the “inhibition of landing on treated netting (in words)” value in assay [2] is “clearly inhibited”. Moreover, the “Mean Landings/5 minutes” value in assay [2] (setting [5]) and in assay [2] (netting treated with 76 μg/cm^2 (500 nmol/cm^2)) was 0 Landings/5 minutes each time.
Regarding `CC(C)c1ccc(CO)cc1` [cumin alcohol], in assay [3], the “EAG response of antenna” value is reported as “capable of triggering EAG responses”.
